Results as given in patent US4694090A, “Chroman compounds useful as analgerics and antioxidants” (Kuraray Co., Ltd., priority 1984, dated 1987).
Where a name gives a salt, the structure may show the parent alone.

What was measured:
[1] = Inhibition of linoleic acid oxidation (ferric thiocyanate absorbance at 500 mμ); settings: 0.2% by weight on linoleic acid basis, pH 9, 70° C.
Procedure: Inhibition of linoleic acid oxidation
A test solution (10 ml) was prepared by adding each test compound, in an amount of 0.2% by weight on the linoleic acid basis, to a borate buffer (pH 9) containing 10^-2 M sodium linoleate. A 0.2 ml portion of the test solution was heated at 70° C. for a specified period of time. After heating, 4.7 ml of 75% ethanol and 0.1 ml of 30% ammonium thiocyanate were added to said test solution, and the mixture was stirred well. Then, 0.1 ml of a ferrous chloride solution [the supernatant obtained by adding an aqueous ferrous sulfate solution (0.6 g/50 ml) and 10 ml of concentrated hydrochloric acid to an aqueous barium chloride solution (0.5 g/50 ml), followed by adequate stirring and standing for a while] was added to said mixture. Exactly 3 minutes later, the resulting solution was measured for the absorbance at 500 mμ. In this way, the trivalent iron formed by the oxidative action of sodium linoleate peroxides was assayed and, based on the assay data, the test compounds were compared with respect to antioxidant activity [cf. Shokuhin Kogaku Jikkensho (Experiments in Food Engineering), vol. I, edited by the Department of Food Engineering, Faculty of Agriculture, Kyoto University, pages 634-635]. The greater the absorbance of the test solution after heating is, the greater the amount of sodium linoleate peroxides formed is.

[2] = AOM (Antioxygen Method) test in ethyl linoleate, time till POV 100 meq/kg; settings: 0.020 g per 100 g ethyl linoleate, aeration 2.33 cc/sec., 97.8° C.
Procedure: To each 100 g of ethyl linoleate was added 0.020 g of one of the test compounds indicated in Table 7 to prepare a test solution. A 20 ml portion of each test solution was exposed to the accelerated conditions of aeration of 2.33 cc/sec. at 97.8° C. in an AOM (Antioxygen Method) test and the time period till the POV (peroxide value) reached 100 meq/kg was determined.

[3] = Japanese Laid-Open Patent Publication No. 94382/1980; cited from earlier work
[4] = Analgesic activity, acetic acid writhing test (mice); format: in vivo, Male ddY strain mice; settings: 100 mg/kg, s.c., male ddY mice, groups of ten
[5] = Acute toxicity (oral administration); settings: mouse, in vivo, male mice
Excerpt: Among the chroman compounds (I), the chroman compounds (I-2) show excellent analgesic activity. In addition, these compounds have low toxicity. […] So, the chroman compounds (I-2) can be used as an analgesic.

[6] = Local anesthetic activity, tail pinch test; format: in vivo, Mouse; settings: s.c., 3%
Procedure: (§1) β-(2,3-Dihydro-6-hydroxy-2,5,7,8-tetramethyl-2H-benzopyranyl)alanine hydrochloride was evaluated for analgesic activity in the writhing test [cf. Koster et al., Fed. Proc., 18, 412 (1959)], local anesthetic activity in the tail pinch test [cf. Bianchi, C., Brit. J. Pharmacol., 11, 104 (1956)] and bronchodilator activity in lung perfusion [cf. Luduena, F. P., Arch. Int. Pharmacodyn., 111, 392 (1957)].

[7] = Analgesic activity, writhing test (rat); format: in vivo; settings: i.p., 100 mg/kg
Procedure: as §1

[8] = test system: isoprenaline-induced bronchodilation; assay: Bronchodilator activity, lung perfusion; settings: Table 8: guinea pig, in vitro, 300 μg
Procedure: as §1
>40% reduction in Inhibited

| SMILES | Absorbance, solution after 1 hr. of heating [1] | Absorbance, solution after 2 hrs. of heating [1] | Absorbance, solution after 3 hrs. of heating [1] | Time till POV = 100 meq/kg [2] [h] | further results |
| --- | --- | --- | --- | --- | --- |
| Cc1c(C)c2c(c(C)c1O)CCC(C)(C(N)C(=O)O)O2 (centres unmarked) | 0.02 | 0.03 | 0.03 | – | – |
| Cc1c(C)c2c(c(C)c1O)CCC(C)(CCC(N)C(=O)O)O2 (centres unmarked) | 0.02 | 0.03 | 0.04 | – | – |
| CC1(CC(N)C(=O)O)CCc2cc(O)ccc2O1 (centres unmarked) | 0.02 | 0.03 | 0.03 | – | – |
| Cc1cc(O)cc2c1OC(C)(CC(N)C(=O)O)CC2 (centres unmarked) | 0.02 | 0.03 | 0.03 | – | – |
| Cc1cc2c(c(C)c1O)CCC(C)(CC(N)C(=O)O)O2 (centres unmarked) | 0.02 | 0.03 | 0.04 | – | – |
| COc1c(O)c(C)c2c(c1OC)OC(C)(CC(N)C(=O)O)CC2 (centres unmarked) | 0.02 | 0.03 | 0.05 | – | – |
| Cc1c2c(c3ccccc3c1O)OC(C)(CC(N)C(=O)O)CC2 (centres unmarked) | 0.02 | 0.03 | 0.05 | – | – |
| CCOC(=O)C(N)CC1(C)CCc2c(C)c(O)c(C)c(C)c2O1 (centres unmarked) | 0.02 | 0.03 | 0.05 | – | – |
| CCCCCCCCCCCCCCCCCCOC(=O)C(N)CC1(C)CCc2c(C)c(O)c(C)c(C)c2O1 (centres unmarked) | 0.03 | 0.04 | 0.07 | – | – |
| Cc1c(C)c2c(c(C)c1O)CCC(C)(C(O)C(=O)O)O2 (centres unmarked) | – | – | – | 2.3 | – |
| Cc1c(C)c2c(c(C)c1O)CCC(C)(CC(O)C(=O)O)O2 (centres unmarked) | – | – | – | 2.4 | – |
| Cc1c(C)c2c(c(C)c1O)CCC(C)(CCC(O)C(=O)O)O2 (centres unmarked) | – | – | – | 2.0 | – |
| CCOC(=O)C(O)C1(C)CCc2c(C)c(O)c(C)c(C)c2O1 (centres unmarked) | – | – | – | 2.1 | – |
| CCOC(=O)C(O)CC1(C)CCc2c(C)c(O)c(C)c(C)c2O1 (centres unmarked) | – | – | – | 2.3 | – |
| COC(=O)C(O)CCC1(C)CCc2c(C)c(O)c(C)c(C)c2O1 (centres unmarked) | – | – | – | 2.1 | – |
| CC1(CC(O)C(=O)O)CCc2cc(O)ccc2O1 (centres unmarked) | – | – | – | 2.2 | – |

| SMILES | Absorbance, solution after 1 hr. of heating [1] | Absorbance, solution after 2 hrs. of heating [1] | Absorbance, solution after 3 hrs. of heating [1] | Time till POV = 100 meq/kg [2] [h] | further results |
| --- | --- | --- | --- | --- | --- |
| Cc1cc(O)cc2c1OC(C)(CC(O)C(=O)O)CC2 (centres unmarked) | – | – | – | 2.3 | – |
| COc1c(O)c(C)c2c(c1OC)OC(C)(CC(O)C(=O)O)CC2 (centres unmarked) | – | – | – | 2.2 | – |
| Cc1c2c(c3ccccc3c1O)OC(C)(CC(O)C(=O)O)CC2 (centres unmarked) | – | – | – | 1.9 | – |
| Cc1c(C)c2c(c(C)c1OC(C)(C)COC(=O)c1cccnc1)CCC(C)(C)O2 [2-(2,2,5,7,8-pentamethyl-6-chromanyloxy)isobutyl nicotinate] | – | – | – | – | cholesterol lowering activity [3]: have cholesterol lowering activity |
| Cc1c(C)c2c(c(C)c1OC(C)(C)C(=O)OCCN(C)C)CCC(C)(C)O2 [2-(N,N-dimethylamino)ethyl 2-(2,2,5,7,8-pentamethyl-6-chromanyloxy)isobutyrate] | – | – | – | – | cholesterol lowering activity [3]: have cholesterol lowering activity |
| O=C1O[C@H]([C@@H](O)CO)C(O)=C1O [Ascorbic acid, reference compound] | 0.10 | 0.21 | 0.30 | – | – |
| CC(=O)Oc1ccccc1C(=O)O [Aspirin, reference compound] | – | – | – | – | inhibition [4]: 40.8% |
| Cc1c(C)c2c(c(C)c1O)CCC(C)(CC(N)C(=O)O)O2 (stereo not drawn) [Example 1, β-(2,3-dihydro-6-hydroxy-2,5,7,8-tetramethyl-2H-benzopyranyl)alanine hydrochloride] | – | – | – | – | LD50 [5]: 2620 mg/kg; Activity observed (animals protected) ([6]; Mouse, tested at 15 min post-dose, criterion >3/5 protected): 5/5; local anesthetic activity (in words) ([6]; Table 8: mouse): demonstrated a local anesthetic activity; Activity observed (writhing score, criterion <50% of control group) ([7]; Rat, test 0.75 hr post-dose): 16%; inhibition of writhing ([7]; Table 8: rat): 84%; isoprenaline-induced bronchodilation (in words) [8]: An inhibition of isoprenaline-induced bronchodilation is also observed; inhibition [4]: 96.1% |
| Cc1c(C)c2c(c(C)c1O)CCC(C)(CC(N)CO)O2 (centres unmarked) [Example 17, 2-amino-3-[2-(2,3-dihydro-6-hydroxy-2,5,7,8-tetramethyl-2H-benzopyranyl)]-1-propanol] | – | – | – | – | inhibition [4]: 83.7% |
| Cc1c(C)c2c(c(C)c1O)CCC(C)(CN)O2 (centres unmarked) [Example 19, (2,3-dihydro-6-hydroxy-2,5,7,8-tetramethyl-2H-benzopyranyl)methylamine hydrochloride] | – | – | – | – | inhibition [4]: 65.6% |
| O=C1OC(C(O)CO)C(O)=C1O (centres unmarked) [Sodium erithorbate, reference compound] | 0.11 | 0.17 | 0.18 | – | – |
| Cc1c(C)c2c(c(C)c1O)CCC(C)(CC(N)C(=O)O)O2 (centres unmarked) [drawing 62] | 0.02 | 0.03 | 0.03 | – | – |
| Cc1c(C)c2c(c(C)c1O)CCC(C)(CC(N)C(=O)O)O2 (centres unmarked) [drawing 70] | 0.02 | 0.03 | 0.04 | – | – |
| Cc1c(C)c2c(c(C)c1O)CCC(C)(CC(N)C(=O)O)O2 (centres unmarked) [drawing 71] | 0.02 | 0.03 | 0.03 | – | – |
| Cc1c(C)c2c(c(C)c1O)CCC(C)(CCCC(C)CCCC(C)CCCC(C)C)O2 (stereo not drawn) [α-Tocopherol, reference compound] | 0.07 | 0.19 | 0.30 | 1.4 | – |
